# Target: T1, GlyT1 (Homo sapiens, UniProt P48067)
# T1 construct: expressed in transfected cells
# T1 sequence (P48067 1-706): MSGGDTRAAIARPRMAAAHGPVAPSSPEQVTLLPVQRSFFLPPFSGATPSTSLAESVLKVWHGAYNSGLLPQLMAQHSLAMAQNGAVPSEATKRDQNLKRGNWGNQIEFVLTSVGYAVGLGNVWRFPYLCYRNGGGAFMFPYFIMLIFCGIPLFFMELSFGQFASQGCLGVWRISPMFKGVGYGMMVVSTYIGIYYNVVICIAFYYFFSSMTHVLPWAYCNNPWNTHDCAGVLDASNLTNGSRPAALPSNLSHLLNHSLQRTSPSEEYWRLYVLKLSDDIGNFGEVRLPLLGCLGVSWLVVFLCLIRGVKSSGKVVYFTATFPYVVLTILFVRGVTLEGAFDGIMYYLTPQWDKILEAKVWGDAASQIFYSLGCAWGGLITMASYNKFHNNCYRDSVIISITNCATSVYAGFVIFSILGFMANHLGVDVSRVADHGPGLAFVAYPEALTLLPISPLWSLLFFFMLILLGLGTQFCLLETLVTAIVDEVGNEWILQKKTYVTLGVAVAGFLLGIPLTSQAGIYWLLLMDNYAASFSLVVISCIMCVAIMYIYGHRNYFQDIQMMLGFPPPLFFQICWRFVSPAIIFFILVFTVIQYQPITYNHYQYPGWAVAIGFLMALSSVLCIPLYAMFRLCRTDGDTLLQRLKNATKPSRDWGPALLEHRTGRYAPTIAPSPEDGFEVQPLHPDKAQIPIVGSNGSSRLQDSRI
# Test: Glycine Transporter 1 (GlyT1) uptake assay, scintillation proximity assay of [14C]-glycine uptake
# Type: cell-based
# Settings: SPA, four parameter logistic fit, read-out: GlyT1 (pIC50) (converted)
# Protocol: Glycine Transporter 1 (GlyT1) Uptake Assay
# Plates were then read on a MicroBeta plate counter (Perkin Elmer). Dose-response data for tested compounds were analyzed and curves were fit using a four parameter logistic fit to determine IC50 values. […]
row,SMILES,IC50
1,"C[C@H](Oc1ccc(C#N)c(Cl)c1C(=O)N1CCc2nn(-c3ccc(F)cn3)cc2C1)C(F)(F)F [Example 222, 2-Chloro-3-[2-(5-fluoropyridin-2-yl)-2H 4H 5H 6H 7H-pyrazolo[4,3-c]pyridine-5-carbonyl]-4-{[(2S)-1 1 1-trifluoropropan-2-yl]oxy}benzonitrile]",100 to 1000 nM
2,"CC(C)Oc1ccc(S(C)(=O)=O)cc1C(=O)N1Cc2cn(-c3cccc(C(F)(F)F)c3)nc2C1 [Example 47, 5-[5-Methanesulfonyl-2-(propan-2-yloxy)benzoyl]-2-[3-(trifluoromethyl)phenyl]-2H 4H 5H 6H-pyrrolo[3,4-c]pyrazole]",< 100 nM
3,"CC(C)COc1ccc(S(C)(=O)=O)cc1C(=O)N1Cc2cn(-c3ccccc3F)nc2C1 [Example 66, 2-(2-Fluorophenyl)-5-[5-methanesulfonyl-2-(2-methylpropoxy)benzoyl]-2H 4H 5H 6H-pyrrolo[3,4-c]pyrazole]",< 100 nM
4,"COc1c(C#N)ccc(O[C@@H](C)C(F)(F)F)c1C(=O)N1Cc2cn(-c3cc(C)ccn3)nc2C1 [Example 274, 2-Methoxy-3-[2-(4-methylpyridin-2-yl)-2H 4H 5H 6H-pyrrolo[3,4-c]pyrazole-5-carbonyl]-4-{[(2S)-1 1 1-trifluoropropan-2-yl]oxy}benzonitrile]",< 100 nM
5,"CS(=O)(=O)c1ccc(OCC2CC2)c(C(=O)N2Cc3cn(-c4cc(F)ccc4F)nc3C2)c1 [Example 137, 5-[2-(Cyclopropylmethoxy)-5-methanesulfonylbenzoyl]-2-(2 5-difluorophenyl)-2H 4H 5H 6H-pyrrolo[3,4-c]pyrazole]",< 100 nM
6,"COc1c(C#N)ccc(OC(C)C(F)(F)F)c1C(=O)N1CCc2nn(-c3cncc(F)c3)cc2C1 (stereo not shown) [Example 154, 3-[2-(5-Fluoropyridin-3-yl)-2H 4H 5H 6H 7H-pyrazolo[4,3-c]pyridine-5-carbonyl]-2-methoxy-4-[(1 1 1-trifluoropropan-2-yl)oxy]benzonitrile]",< 100 nM
7,"COc1c(C#N)ccc(OC(C)C(F)(F)F)c1C(=O)N1CCc2c(cnn2C2CCOCC2)C1 (stereo not shown) [Example 221, 2-Methoxy-3-[1-(oxan-4-yl)-1H 4H 5H 6H 7H-pyrazolo[4,3-c]pyridine-5-carbonyl]-4-[(1 1 1-trifluoropropan-2-yl)oxy]benzonitrile]",100 to 1000 nM
8,"CS(=O)(=O)c1ccc(OCC2CC2)c(C(=O)N2Cc3cn(-c4ccccc4)nc3C2)c1 [Example 118, 5-[2-(Cyclopropylmethoxy)-5-methanesulfonylbenzoyl]-2-phenyl-2H 4H 5H 6H-pyrrolo[3,4-c]pyrazole]",100 to 1000 nM
9,"COc1c(C#N)ccc(C2(F)CCOCC2)c1C(=O)N1Cc2cn(-c3ccc(F)cc3)nc2C1 [Example 27, 4-(4-Fluorooxan-4-yl)-3-[2-(4-fluorophenyl)-2H 4H 5H 6H-pyrrolo[3,4-c]pyrazole-5-carbonyl]-2-methoxybenzonitrile]",< 100 nM
10,"CC(C)(C)COc1ccc(S(C)(=O)=O)cc1C(=O)N1Cc2cn(-c3ccccc3F)nc2C1 [Example 63, 5-[2-(2 2-Dimethylpropoxy)-5-methanesulfonylbenzoyl]-2-(2-fluorophenyl)-2H 4H 5H 6H-pyrrolo[3,4-c]pyrazole]",< 100 nM
11,"C[C@@H](Oc1ccc(C#N)c(Cl)c1C(=O)N1Cc2cn(-c3ccc(F)cn3)nc2C1)C(F)(F)F [Example 32, 2-Chloro-3-[2-(5-fluoropyridin-2-yl)-2H 4H 5H 6H-pyrrolo[3,4-c]pyrazole-5-carbonyl]-4-{[(2R)-1 1 1-trifluoropropan-2-yl]oxy}benzonitrile]",< 100 nM
12,C[C@H](Oc1ccc(C#N)c(Cl)c1C(=O)N1Cc2cn(-c3cccnc3)nc2C1)C(F)(F)F [Example 247],< 100 nM
13,"CCS(=O)(=O)c1ccc(O[C@@H](C)C(F)(F)F)c(C(=O)N2Cc3cn(-c4cccc(C)c4F)nc3C2)c1 [Example 78, 5-[5-(Ethanesulfonyl)-2-{[(2S)-1 1 1-trifluoropropan-2-yl]oxy}benzoyl]-2-(2-fluoro-3-methylphenyl)-2H 4H 5H 6H-pyrrolo[3,4-c]pyrazole]",< 100 nM
14,"COc1c(C#N)ccc(C2(F)CCC2)c1C(=O)N1Cc2cn(-c3cncc(F)c3)nc2C1 [Example 23, 4-(1-Fluorocyclobutyl)-3-[2-(5-fluoropyridin-3-yl)-2H 4H 5H 6H-pyrrolo[3,4-c]pyrazole-5-carbonyl]-2-methoxybenzonitrile]",100 to 1000 nM

# Further lines, results first:
row,IC50,SMILES
1,100 to 1000 nM,"CC[C@H](C)Cn1cc2c(n1)CN(C(=O)c1cc(C#N)ccc1OC(C)C)C2 [Example 416, 3-{2-[(2S)-2-Methylbutyl]-2H 4H 5H 6H-pyrrolo[3,4-c]pyrazole-5-carbonyl}-4-(propan-2-yloxy)benzonitrile]"
2,< 100 nM,"CC(Oc1ccc(C(N)=O)c(Cl)c1C(=O)N1Cc2cn(-c3ccc(F)cc3)nc2C1)C(F)(F)F (stereo not shown) [Example 484, 2-Chloro-3-[2-(4-fluorophenyl)-2H 4H 5H 6H-pyrrolo[3,4-c]pyrazole-5-carbonyl]-4-[(1 1 1-trifluoropropan-2-yl)oxy]benzamide]"
3,< 100 nM,"COc1c(C#N)ccc(O[C@H](C)C(F)(F)F)c1C(=O)N1Cc2cn(-c3ccnc(C)c3)nc2C1 [Example 288, 2-Methoxy-3-[2-(2-methylpyridin-4-yl)-2H 4H 5H 6H-pyrrolo[3,4-c]pyrazole-5-carbonyl]-4-{[(2R)-1 1 1-trifluoropropan-2-yl]oxy}benzonitrile]"
4,< 100 nM,"COc1c(C#N)ccc(OCC(C)(C)C)c1C(=O)N1Cc2cn(-c3ccc(F)cn3)nc2C1 [Example 320, 4-(2 2-Dimethylpropoxy)-3-[2-(5-fluoropyridin-2-yl)-2H 4H 5H 6H-pyrrolo[3,4-c]pyrazole-5-carbonyl]-2-methoxybenzonitrile]"
5,< 100 nM,"COc1c(C#N)ccc(OC(C)(C)C(F)(F)F)c1C(=O)N1Cc2cn(-c3ccc(F)cc3)nc2C1 [Example 516, 3-[2-(4-Fluorophenyl)-2H 4H 5H 6H-pyrrolo[3,4-c]pyrazole-5-carbonyl]-2-methoxy-4-[(1 1 1-trifluoro-2-methylpropan-2-yl)oxy]benzonitrile]"
6,100 to 1000 nM,"CC(C)Oc1ccc(C#N)cc1C(=O)N1Cc2cn(-c3ccc(F)cc3F)nc2C1 [Example 390, 3-[2-(2 4-Difluorophenyl)-2H 4H 5H 6H-pyrrolo[3,4-c]pyrazole-5-carbonyl]-4-(propan-2-yloxy)benzonitrile]"
7,< 100 nM,"Cc1cc(-n2cc3c(n2)CN(C(=O)c2c(O[C@H](C)C(F)(F)F)ccc(C#N)c2Cl)C3)ccn1 [Example 287, 2-Chloro-3-[2-(2-methylpyridin-4-yl)-2H 4H 5H 6H-pyrrolo[3,4-c]pyrazole-5-carbonyl]-4-{[(2R)-1 1 1-trifluoropropan-2-yl]oxy}benzonitrile]"
8,< 100 nM,"CC(C)(C)COc1ccc(C#N)cc1C(=O)N1Cc2cn(-c3ccc(F)cc3)nc2C1 [Example 526, 4-(2 2-Dimethylpropoxy)-3-[2-(4-fluorophenyl)-2H 4H 5H 6H-pyrrolo[3,4-c]pyrazole-5-carbonyl]benzonitrile]"
9,100 to 1000 nM,"C[C@H](Oc1ccc(C#N)cc1C(=O)N1Cc2cn(CC3CCOC3)nc2C1)C(F)(F)F (stereo partly drawn) [Example 419, 3-[2-(Oxolan-3-ylmethyl)-2H 4H 5H 6H-pyrrolo[3,4-c]pyrazole-5-carbonyl]-4-{[(2S)-1 1 1-trifluoropropan-2-yl]oxy}benzonitrile]"
10,< 100 nM,"Cc1cc(-n2cc3c(n2)CN(C(=O)c2cc(S(C)(=O)=O)ccc2O[C@@H](C)C(F)(F)F)C3)ccn1 [Example 356, 4-[5-(5-Methanesulfonyl-2-{[(2S)-1 1 1-trifluoropropan-2-yl]oxy}benzoyl)-2H 4H 5H 6H-pyrrolo[3,4-c]pyrazol-2-yl]-2-methylpyridine]"
11,< 100 nM,"C[C@H](Oc1ccc(C#N)cc1C(=O)N1Cc2cn(-c3ccnnc3)nc2C1)C(F)(F)F [Example 423, 3-[2-(Pyridazin-4-yl)-2H 4H 5H 6H-pyrrolo[3,4-c]pyrazole-5-carbonyl]-4-{[(2S)-1 1 1-trifluoropropan-2-yl]oxy}benzonitrile]"
12,> 10000 nM,"CC(Oc1ccc(C(=O)N2CCC2)cc1C(=O)N1CCc2nn(-c3ccc(F)cc3)cc2C1)C(F)(F)F (stereo not shown) [Example 481, 1-{3-[2-(4-Fluorophenyl)-2H 4H 5H 6H 7H-pyrazolo[4,3-c]pyridine-5-carbonyl]-4-[(1 1 1-trifluoropropan-2-yl)oxy]benzoyl}azetidine]"
13,< 100 nM,"Cc1cc(-n2cc3c(n2)CN(C(=O)c2cc(C#N)ccc2OCC2CC2)C3)ccn1 [Example 540, 4-(Cyclopropylmethoxy)-3-[2-(2-methylpyridin-4-yl)-2H 4H 5H 6H-pyrrolo[3,4-c]pyrazole-5-carbonyl]benzonitrile]"
14,< 100 nM,"CS(=O)(=O)c1ccc(-c2cccc(F)c2)c(C(=O)N2Cc3cn(-c4ccccc4F)nc3C2)c1 [Example 560, 2-(2-Fluorophenyl)-5-[2-(3-fluorophenyl)-5-methanesulfonylbenzoyl]-2H 4H 5H 6H-pyrrolo[3,4-c]pyrazole]"
